According to ChEMBL document CHEMBL1155776, “Effect of fluoroquinolone treatment on growth of and toxin production by epidemic and nonepidemic clostridium difficile strains in the cecal contents of mice” (Antimicrob Agents Chemother, 2007):
In brackets after ≈: the same amount, converted by molar mass. Activity calls are given as the source filed them. The rule behind the calls is not given here.

What was measured:
Clostridioides difficile [1] = experiment: Increase in toxin level in epidemic Clostridium difficile BI6-8-17 infected CF1 mouse at 1.4 mg/day, sc for 4 days assessed after 2 days of last treatment; type: functional, organism-based
Clostridioides difficile [2] = experiment: Increase in toxin level in nonepidemic Clostridium difficile J29 infected CF1 mouse at 2 mg/day, sc for 4 days assessed after 2 days of last treatment; type: functional, organism-based
Clostridioides difficile [3] = experiment: Antimicrobial activity against nonepidemic Clostridium difficile J29 by broth dilution method; type: functional
Clostridioides difficile [4] = experiment: Effect on growth of nonepidemic Clostridium difficile ATCC 9689 in CF1 mouse assessed as increase in bacterial density in cecal content at 2 mg/day, sc for 4 days assessed after 2 days of last treatment; type: functional, organism-based
Clostridioides difficile [5] = experiment: Increase in toxin level in nonepidemic Clostridium difficile J29 infected CF1 mouse at 1.4 mg/day, sc for 4 days assessed after 2 days of last treatment; type: functional, organism-based
Clostridioides difficile [6] = experiment: Increase in toxin level in epidemic Clostridium difficile BI9 infected CF1 mouse at 2 mg/day, sc for 4 days assessed after 2 days of last treatment; type: functional, organism-based
Clostridioides difficile [7] = experiment: Antimicrobial activity against epidemic Clostridium difficile BI9 by broth dilution method; type: functional
Clostridioides difficile [8] = experiment: Effect on growth of nonepidemic Clostridium difficile J29 in CF1 mouse assessed as increase in bacterial density in cecal content at 2 mg/day, sc for 4 days assessed after 2 days of last treatment; type: functional, organism-based
Clostridioides difficile [9] = experiment: Antimicrobial activity against fluoroquinolone-resistant epidemic Clostridium difficile NAP1 by broth dilution method; type: functional
Clostridioides difficile [10] = experiment: Increase in toxin level in epidemic Clostridium difficile BI6-8-17 infected CF1 mouse at 0.2 mg/day, sc for 4 days assessed after 2 days of last treatment; type: functional, organism-based
Clostridioides difficile [11] = experiment: Inhibition of clindamycin-susceptible nonepidemic Clostridium difficile strain6 in CF1 mouse at 0.2 mg/day, sc for 5 days; type: functional, organism-based
Clostridioides difficile [12] = experiment: Increase in toxin level in nonepidemic Clostridium difficile J29 infected CF1 mouse at 0.2 mg/day, sc for 4 days assessed after 2 days of last treatment; type: functional, organism-based
Clostridioides difficile [13] = experiment: Antimicrobial activity against epidemic Clostridium difficile BI6-8-17 by broth dilution method; type: functional
Clostridioides difficile [14] = experiment: Effect on growth of nonepidemic Clostridium difficile J29 in CF1 mouse assessed as increase in bacterial density in cecal content at 1.4 mg/day, sc for 4 days assessed after 2 days of last treatment; type: functional, organism-based
Clostridioides difficile [15] = experiment: Antimicrobial activity against fluoroquinolone-susceptible nonepidemic Clostridium difficile strain6 by broth dilution method; type: functional
Clostridioides difficile [16] = experiment: Effect on growth of nonepidemic Clostridium difficile ATCC 9689 in CF1 mouse assessed as increase in bacterial density in cecal content at 1.4 mg/day, sc for 4 days assessed after 2 days of last treatment; type: functional, organism-based
Clostridioides difficile [17] = experiment: Increase in toxin level in nonepidemic Clostridium difficile ATCC 9689 infected in CF1 mouse at 1.4 mg/day, sc for 4 days assessed after 2 days of last treatment; type: functional, organism-based
Clostridioides difficile [18] = experiment: Antimicrobial activity against nonepidemic Clostridium difficile ATCC 9689 by broth dilution method; type: functional
Clostridioides difficile [19] = experiment: Increase in toxin level in nonepidemic Clostridium difficile ATCC 9689 infected in CF1 mouse at 2 mg/day, sc for 4 days assessed after 2 days of last treatment; type: functional, organism-based
Clostridioides difficile [20] = experiment: Increase in toxin level in epidemic Clostridium difficile BI9 infected CF1 mouse at 1.4 mg/day, sc for 4 days assessed after 2 days of last treatment; type: functional, organism-based
Clostridioides difficile [21] = experiment: Effect on growth of epidemic Clostridium difficile BI9 in CF1 mouse assessed as increase in bacterial density in cecal content at 1.4 mg/day, sc for 4 days assessed after 2 days of last treatment; type: functional, organism-based
Clostridioides difficile [22] = experiment: Increase in toxin level in epidemic Clostridium difficile BI9 infected CF1 mouse at 0.2 mg/day, sc for 4 days assessed after 2 days of last treatment; type: functional, organism-based
Clostridioides difficile [23] = experiment: Effect on growth of epidemic Clostridium difficile BI9 in CF1 mouse assessed as increase in bacterial density in cecal content at 2 mg/day, sc for 4 days assessed after 2 days of last treatment; type: functional, organism-based
Clostridioides difficile [24] = experiment: Inhibition of clindamycin-susceptible epidemic Clostridium difficile NAP1 in CF1 mouse at 0.2 mg/day, sc for 5 days; type: functional, organism-based
Clostridioides difficile [25] = experiment: Effect on growth of epidemic Clostridium difficile BI6-8-17 in CF1 mouse assessed as increase in bacterial density in cecal content at 1.4 mg/day, sc for 4 days assessed after 2 days of last treatment; type: functional, organism-based
Clostridioides difficile [26] = experiment: Inhibition of clindamycin-susceptible nonepidemic Clostridium difficile strain6 in CF1 mouse at 0.2 mg/day, sc for 5 days assessed after 2 days of last treatment; type: functional, organism-based
Clostridioides difficile [27] = experiment: Increase in toxin level in nonepidemic Clostridium difficile ATCC 9689 infected in CF1 mouse at 0.2 mg/day, sc for 4 days assessed after 2 days of last treatment; type: functional, organism-based
Clostridioides difficile [28] = experiment: Inhibition of clindamycin-susceptible epidemic Clostridium difficile NAP1 in CF1 mouse at 0.2 mg/day, sc for 5 days assessed after 2 days of last treatment; type: functional, organism-based
Clostridioides difficile [29] = experiment: Effect on growth of epidemic Clostridium difficile BI6-8-17 in CF1 mouse assessed as increase in bacterial density in cecal content at 2 mg/day, sc for 4 days assessed after 2 days of last treatment; type: functional, organism-based
Clostridioides difficile [30] = experiment: Increase in toxin level in epidemic Clostridium difficile BI6-8-17 infected CF1 mouse at 2 mg/day, sc for 4 days assessed after 2 days of last treatment; type: functional, organism-based
Clostridioides difficile [31] = experiment: Effect on growth of epidemic Clostridium difficile BI9 in CF1 mouse assessed as increase in bacterial density in cecal content at 0.4 mg/day, sc for 4 days assessed after 2 days of last treatment; type: functional, organism-based
[32] = Drug level in Clostridium difficile infected CF1 mouse stool at 0.2 mg/day for 4 days; type: ADME; conditions: read-out: Drug uptake
Clostridioides difficile [33] = experiment: Effect on growth of fluoroquinolone-susceptible nonepidemic Clostridium difficile strain6 in CF1 mouse assessed as increase in bacterial density in cecal content at dosed sc for 5 days; type: functional, organism-based
[34] = Drug level in Clostridium difficile infected CF1 mouse stool at 0.375 mg/day for 4 days; type: ADME; conditions: read-out: Drug uptake

Row | SMILES | Activity (Clostridioides difficile [1]) | Activity (Clostridioides difficile [2]) | MIC (Clostridioides difficile [3]) [µg/mL] | Activity (Clostridioides difficile [4]) | Activity (Clostridioides difficile [5]) | Activity (Clostridioides difficile [6]) | MIC (Clostridioides difficile [7]) [µg/mL] | Activity (Clostridioides difficile [8]) | MIC (Clostridioides difficile [9]) [µg/mL] | Activity (Clostridioides difficile [10]) | Activity (Clostridioides difficile [12]) | MIC (Clostridioides difficile [13]) [µg/mL] | Activity (Clostridioides difficile [14]) | MIC (Clostridioides difficile [15]) [µg/mL] | Activity (Clostridioides difficile [17]) | MIC (Clostridioides difficile [18]) [µg/mL] | Activity (Clostridioides difficile [19]) | Activity (Clostridioides difficile [20]) | Activity (Clostridioides difficile [22]) | Activity (Clostridioides difficile [27]) | other results
1 | CCC[C@@H]1C[C@@H](C(=O)N[C@@H]([C@H]2O[C@H](SC)[C@H](O)[C@@H](O)[C@H]2O)[C@H](C)Cl)N(C)C1 [CLINDAMYCIN] | Active | Active | > 256 | Active | Active | Active | > 256 | Active | 2 (≈ 4.71 µM) | Active | Active | > 256 | Active | 2 (≈ 4.71 µM) | Active | > 256 | Active | Active | Active | Active | Activity (Clostridioides difficile [11]): Active; Activity (Clostridioides difficile [16]): Active; Activity (Clostridioides difficile [21]): Active; Activity (Clostridioides difficile [23]): Active; Activity (Clostridioides difficile [24]): Active; Activity (Clostridioides difficile [25]): Active; Activity (Clostridioides difficile [26]): inactive; Activity (Clostridioides difficile [28]): inactive; Activity (Clostridioides difficile [29]): Active
2 | COc1c(N2CCNC(C)C2)c(F)cc2c(=O)c(C(=O)O)cn(C3CC3)c12 (stereo not drawn) [GATIFLOXACIN] | Active | Active | 32 (≈ 85.2 µM) |  | Active | Active | 64 (≈ 170 µM) |  | 256 (≈ 682 µM) | Active | Active | 32 (≈ 85.2 µM) |  | 4 (≈ 10.7 µM) | Active | < 2 | Active | Active | Active | Active | Activity (Clostridioides difficile [30]): Active; Activity (Clostridioides difficile [31]): Active; concentration at 96 h [32]: 76600 ng/g
3 | CO/N=C(\C(=O)N[C@@H]1C(=O)N2C(C(=O)O)=C(CSc3nc(=O)c(O)nn3C)CS[C@H]12)c1csc(N)n1 [CEFTRIAXONE] | Active | Active | 64 (≈ 115 µM) | Active | Active | Active | 32 (≈ 57.7 µM) | Active | 16 (≈ 28.9 µM) | Active | Active | 32 (≈ 57.7 µM) | Active | 32 (≈ 57.7 µM) | Active | 32 (≈ 57.7 µM) | Active | Active | Active | Active | Activity (Clostridioides difficile [30]): Active; Activity (Clostridioides difficile [16]): Active; Activity (Clostridioides difficile [33]): Active; Activity (Clostridioides difficile [21]): Active; Activity (Clostridioides difficile [23]): Active; Activity (Clostridioides difficile [25]): Active; Activity (Clostridioides difficile [29]): Active
4 | C[C@H]1COc2c(N3CCN(C)CC3)c(F)cc3c(=O)c(C(=O)O)cn1c23.C[C@H]1COc2c(N3CCN(C)CC3)c(F)cc3c(=O)c(C(=O)O)cn1c23.O [LEVOFLOXACIN] |  |  | 256 |  |  |  | 256 |  | > 256 |  |  | > 256 |  | 8 |  | 8 |  |  |  |  | concentration at 96 h [34]: 58100 ng/g
